Reference: patent US20260265207A1, “DPP1 INHIBITORS WITH POLYCYCLIC LINKERS AND USES THEREOF” (Insmed Incorporated, priority 2023, published 2026)

Legend:
DPP1 [1] = biological target: T1, DPP1 (Homo sapiens, UniProt P53634); assay: Human DPP1 Enzyme IC50 Assay; type: biochemical; parameters: is first proteolytically processed into its mature form using recombinant human cathepsin L; purchased R&D Systems; conditions: activated recombinant human DPP1, H-Gly-Arg-AMC substrate 400 μM, pH 6.0
Protocol: Human DPP1 Enzyme IC50 Assay
Recombinant human DPP1 enzyme (R&D Systems; Minneapolis, MN) is first proteolytically processed into its mature form using recombinant human cathepsin L (R&D Systems) in a buffer consisting of 20 mM citric acid pH 4.5, 150 mM NaCl, 1 mM EDTA and 10 mM DTT. Test articles are applied to activated human DPP1 enzyme in Assay Buffer (25 mM MES pH 6.0, 50 mM NaCl, 5 mM DTT) in a total reaction volume of 125 μL. 25 μL of compound in Assay Buffer plus 5% DMSO is first added to 50 μL of activated human DPP1 enzyme at a concentration of 1 ng/μL and allowed to pre-incubate for 10 minutes at 37° C. after which 50 μL of 1000 μM H-Gly-Arg-AMC substrate (Bachem; St. Torrance, CA) is added, giving final substrate concentration of 400 μM and a final DMSO concentration of 1%. Substrate cleavage is measured for 90 minutes at 37° C., with fluorescence at Excitation/Emission 350/450 nm measured every 5 minutes. DPP1 concentration is interpolated based on its activity relative to a standard curve of activated human recombinant DPP1 enzyme. IC50 values for each compound are calculated via the XLFit (IDBS Version 5.3.1.3) Add-On to Microsoft Excel using the four parameter fit equation y={A+[(B−A)]/[1+((C/x)^D)]}, which appears as equation number 205 (4 Parameter Logistic Model or Sigmoidal Dose-Response Model) in XLFit. Default constraints are used for each Parameter. IC50 is defined as the compound concentration at which […] of enzyme activity is inhibited when compared to the no-compound control. The IC50 table is included in the table below.
Target sequence in this assay (P53634 25-134 limits assumed): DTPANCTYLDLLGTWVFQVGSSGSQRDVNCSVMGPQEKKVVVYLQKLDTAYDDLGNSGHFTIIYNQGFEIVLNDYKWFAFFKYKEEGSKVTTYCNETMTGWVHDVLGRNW
Target sequence in this assay (P53634 231-394 limits assumed): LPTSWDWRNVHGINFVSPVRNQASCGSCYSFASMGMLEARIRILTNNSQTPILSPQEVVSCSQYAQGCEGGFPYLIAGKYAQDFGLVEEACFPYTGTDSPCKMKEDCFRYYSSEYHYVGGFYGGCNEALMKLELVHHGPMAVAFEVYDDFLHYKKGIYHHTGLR
Target sequence in this assay (P53634 395-463 limits assumed): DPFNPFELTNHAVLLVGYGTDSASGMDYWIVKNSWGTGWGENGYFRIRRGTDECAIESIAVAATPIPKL

DPP1 [2] = biological target: T1, DPP1; assay: Cell Assay (DPP1 IC50 values, Table 2); type: cell-based; conditions: method not described
Target sequence in this assay (P53634 25-463): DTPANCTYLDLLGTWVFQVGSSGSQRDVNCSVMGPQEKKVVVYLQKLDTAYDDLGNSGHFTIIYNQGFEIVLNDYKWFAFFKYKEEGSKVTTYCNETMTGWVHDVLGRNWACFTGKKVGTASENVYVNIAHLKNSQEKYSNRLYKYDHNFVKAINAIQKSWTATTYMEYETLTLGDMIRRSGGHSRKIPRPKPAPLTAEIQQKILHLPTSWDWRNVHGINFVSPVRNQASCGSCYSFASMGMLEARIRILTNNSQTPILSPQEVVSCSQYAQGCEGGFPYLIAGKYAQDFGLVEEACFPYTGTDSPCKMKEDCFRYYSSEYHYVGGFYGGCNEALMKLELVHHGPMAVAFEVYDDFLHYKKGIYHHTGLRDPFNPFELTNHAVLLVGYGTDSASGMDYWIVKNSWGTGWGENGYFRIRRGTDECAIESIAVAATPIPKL

active mouse DPP1 enzyme = biological target: T2, active mouse DPP1 enzyme (Mus musculus, UniProt P97821); assay: Mouse DPP1 Enzyme IC50 Assay; type: biochemical; conditions: active mouse DPP1, H-Gly-Arg-AMC substrate 400 μM, pH 5.5
T2 construct: Test articles are applied to active mouse DPP1 enzyme; purchased R&D Systems
T2 sequence (P97821 25-134 limits assumed): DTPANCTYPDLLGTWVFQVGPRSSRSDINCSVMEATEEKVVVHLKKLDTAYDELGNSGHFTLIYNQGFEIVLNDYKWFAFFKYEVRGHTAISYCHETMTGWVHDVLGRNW
T2 sequence (P97821 231-393 limits assumed): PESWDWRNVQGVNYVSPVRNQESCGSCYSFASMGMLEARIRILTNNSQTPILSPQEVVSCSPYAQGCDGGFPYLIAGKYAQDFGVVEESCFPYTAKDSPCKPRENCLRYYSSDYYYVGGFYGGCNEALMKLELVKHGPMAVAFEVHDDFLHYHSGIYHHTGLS
T2 sequence (P97821 394-462 limits assumed): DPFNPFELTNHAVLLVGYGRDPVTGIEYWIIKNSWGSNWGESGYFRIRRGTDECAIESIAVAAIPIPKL
Protocol: Mouse DPP1 Enzyme IC50 Assay
Test articles are applied to active mouse DPP1 enzyme (R&D Systems; Minneapolis, MN) in Assay Buffer (50 mM MES pH 5.5, 50 mM NaCl, 5 mM DTT) in a total reaction volume of 125 μL. 25 μL of compound in Assay Buffer plus 5% DMSO is first added to 50 μL of active mouse DPP1 enzyme at a concentration of 62.5 pg/μL and allowed to pre-incubate for 10 minutes at 37° C. after which 50 μL of 1000 μM H-Gly-Arg-AMC substrate (Bachem; St. Torrance, CA) is added, giving final substrate concentration of 400 μM and a final DMSO concentration of 1%. Substrate cleavage is measured for 90 minutes at 37° C., with fluorescence at Excitation/Emission 350/450 nm measured every 5 minutes. DPP1 concentration is interpolated based on its activity relative to a standard curve of recombinant active mouse DPP1 enzyme. IC50 values for each compound are calculated via the XLFit (IDBS Version 5.3.1.3) Add-On to Microsoft Excel using the four parameter fit equation y=(A+((B-A)/(1+((C/x)^D)))), which appears as equation number 205 (4 Parameter Logistic Model or Sigmoidal Dose-Response Model) in XLFit. Default constraints are used for each Parameter. IC50 is defined as the compound concentration at which 50% of enzyme activity is inhibited when compared to the no-compound control.

Row | Structure (SMILES) | IC50 (DPP1 [1]) | IC50 (DPP1 [2]) | IC50 (active mouse DPP1 enzyme)
1 | Cn1c(=O)oc2ccc(C34CC(C[C@@H](C#N)NC(=O)[C@@H]5CNCCCO5)(C3)C4)cc21 [Compound 101d] | ≥ 15 nM |  | 
2 | Cn1c(=O)oc2ccc(-c3cc4ccc(C[C@@H](C#N)NC(=O)C5CNCCCO5)cc4s3)cc21 (stereo partly shown) [Compound 112b] | ≥ 15 nM |  | 
3 | Cn1c(=O)oc2ccc(-c3ccc4cc(C[C@@H](C#N)NC(=O)[C@@H]5CNCCCO5)sc4c3)cc21 [Compound 113b] | ≥ 15 nM | ≥ 0.0015 µM | ≥ 20 nM
4 | Cn1c(=O)oc2ccc(-c3ccc4sc(C[C@@H](C#N)NC(=O)C5CNCCCO5)cc4c3)cc21 (stereo partly shown) [Compound 114b] | ≥ 15 nM | ≥ 0.0015 µM | ≥ 20 nM
5 | Cn1c(=O)oc2ccc(-c3ccc4sc(C[C@@H](C#N)NC(=O)[C@@H]5CNCCCO5)c(F)c4c3)cc21 [Compound 115b] | ≥ 15 nM | ≥ 0.0015 µM | ≥ 20 nM
6 | Cn1c(=O)oc2ccc(-c3cc4sc(CC(C#N)NC(=O)[C@@H]5CNCCCO5)cc4s3)cc21 (stereo partly drawn) [Compound 118b, (2S)—N-(1-cyano-2-(5-(3-methyl-2-oxo-2,3-dihydrobenzo[d]oxazol-5-yl)thieno[3,2-b]thiophen-2-yl)ethyl)-1,4-oxazepane-2-carboxamide] | ≥ 15 nM | ≥ 0.0015 µM | ≥ 20 nM
7 | Cn1c(=O)oc2ccc(-c3ccc4cc(CC(C#N)NC(=O)[C@@H]5CNCCCO5)[nH]c4c3)cc21 (stereo partly drawn) [Compound 128b, (2S)—N-(1-cyano-2-(6-(3-methyl-2-oxo-2,3-dihydrobenzo[d]oxazol-5-yl)-1H-indol-2-yl)ethyl)-1,4-oxazepane-2-carboxamide] | ≥ 15 nM | ≥ 0.0015 µM | 
8 | Cn1c(=O)oc2ccc(-c3ccc4c(F)c(C[C@@H](C#N)NC(=O)[C@@H]5CNCCCO5)sc4c3)cc21 [Compound 130b] | ≥ 15 nM | ≥ 0.0015 µM | 
9 | Cn1c(=O)oc2ccc(-c3cc4cc(C[C@@H](C#N)NC(=O)C5CNCCCO5)ccc4s3)cc21 (stereo partly shown) [Compound 131b] | ≥ 15 nM | ≥ 0.0015 µM | 
10 | Cn1c(=O)oc2ccc(-c3ccc4cc(CC(C#N)NC(=O)[C@@H]5CNCCCO5)ccc4c3)cc21 (stereo partly drawn) [Compound 133b, (2S)—N-{1-cyano-2-[6-(3-methyl-2-oxo-1,3-benzoxazol-5-yl)naphthalen-2-yl]ethyl}-1,4-oxazepane-2-carboxamide] | ≥ 15 nM | ≥ 0.0015 µM | 
11 | Cn1c(=O)oc2ccc(-c3cc4ccc(C[C@@H](C#N)NC(=O)[C@@H]5CNCCCO5)c(F)c4s3)cc21 [Compound 134a] | ≥ 15 nM | ≥ 0.0015 µM | 
12 | CCN1C(=O)Cc2ccc(-c3cc4sc(C[C@@H](C#N)NC(=O)[C@@H]5CNCCCCO5)cc4s3)cc21 [Compound 138b, (2S)—N-[(1S)-1-cyano-2-[5-(1-ethyl-2-oxo-3H-indol-6-yl)thieno[3,2-b]thiophen-2-yl]ethyl]-1,4-oxazocane-2-carboxamide] | ≥ 15 nM | ≥ 0.0015 µM | 
13 | CCN1C(=O)Cc2ccc(-c3cc4sc(C[C@H](C#N)NC(=O)[C@@H]5CNCCCCO5)cc4s3)cc21 [Compound 138c, (2S)—N-[(1R)-1-cyano-2-[5-(1-ethyl-2-oxo-3H-indol-6-yl)thieno[3,2-b]thiophen-2-yl]ethyl]-1,4-oxazocane-2-carboxamide] | ≥ 15 nM | ≥ 0.0015 µM | 
14 | Cn1c(=O)oc2ccc(-c3cc4sc(C[C@@H](C#N)NC(=O)[C@@H]5CNCCCCO5)cc4s3)cc21 [Compound 139b, (2S)—N-[(1S)-1-cyano-2-[5-(3-methyl-2-oxo-1,3-benzoxazol-5-yl)thieno[3,2-b]thiophen-2-yl]ethyl]-1,4-oxazocane-2-carboxamide] | ≥ 15 nM | ≥ 0.0015 µM | 
15 | Cn1c(=O)oc2ccc(-c3cc4sc(C[C@H](C#N)NC(=O)[C@@H]5CNCCCCO5)cc4s3)cc21 [Compound 139c, (2S)—N-[(1R)-1-cyano-2-[5-(3-methyl-2-oxo-1,3-benzoxazol-5-yl)thieno[3,2-b]thiophen-2-yl]ethyl]-1,4-oxazocane-2-carboxamide] | ≥ 15 nM | ≥ 0.0015 µM | 
16 | CO[C@@H]1CCNC[C@@H](C(=O)N[C@H](C#N)Cc2cc3sc(-c4ccc5oc(=O)n(C)c5c4)cc3s2)OC1 [Compound 142b] | 5 to 15 nM | ≥ 0.0015 µM | 
